Results as given in patent US7462613B2, “Pyridazinone derivatives as pharmaceuticals and pharmaceutical compositions containing them” (SANOFI-AVENTIS Deutschland GmbH, priority 2002, dated 2008).

Target: CDK2/Cyclin E kinase (Homo sapiens, UniProt P24941)
Assay: CDK2/Cyclin E Flashplate Assay: 96-Well Format
Type: biochemical
Conditions: streptavidin-coated flashplate; biotinylated-Rb peptide substrate 10 μM; 33P-ATP/ATP 1 μM; CDK2/Cyclin E 20 nM; 30 minutes at 30° C.; 1% DMSO
Protocol: Functional Measurements for Determination of IC50-Values
CDK2/Cyclin E Flashplate Assay: 96-Well Format
A 96-well streptavidin-coated flashplate was used to assay potency of compounds according formula (I) against CDK2/Cyclin E kinase. To carry out the assay, biotinylated-Rb peptide substrate (Biotin-[…]-OH) was solubilized at 1 mM in kinase buffer (Hepes 50 mM, NaCl 1 mM, MgCl2 5 mM pH 7.5) as a stock solution conserved at −20° C. in aliquots of 110 μl. The day of the experiment, an aliquot of this solution was thawed and diluted to 14.3 μM in kinase buffer, containing 1 mM dithiothreitol (DTT) added in the buffer at the same time.
70 μl of this solution was added in each well of the flashplate in order to achieve a final concentration of 10 μM (100 μl reactionnal volume). Serial dilutions of inhibitors were prepared in DMSO from 10 mM stock solutions in order to achieve 1000 μM, 333.3 μM, 111.1 μM, 37.03 μM, 12.35 μM, 4.11 μM and 1.37 μM and all were rediluted in kinase buffer+DTT in order to achieve 100 μM, 33.3 μM, 11.1 μM, 3.7 μM, 1.24 μM, 0.41 μM and 0.14 μM in DMSO 10% buffer (vol/vol). 10 μl of each, of these solutions (or 10 μl of buffer+DTT for controls) were transferred to the testplate wells in order to achieve 10 μM, 3.33 μM, 1.11 μM, 0.37 μM, 0.12 μM, 0.04. μM and 0.01 μM as final concentrations, 1% DMSO (vol/vol). In each well, 10 μl of a solution of a mix of ^33PyATP/ATP were added in order to achieve 1 μM final concentration and a total of 1 μCi. The kinase reaction was initiated by addition of 10 μl of a solution at 200 nM of CDK2/Cyclin E in kinase buffer+DTT (or buffer+DTT for blanks) in order to achieve 20 nM final concentration. After addition of each reagent, the test-plate was shakened. The plates were incubated 30 minutes at 30° C. with a shaking at 650 rpm. At the end of the incubation, the plates were washed 3 times with 300 μl of PBS (without calcium and magnesium) per well. The incorporation of ^33P to the peptide was measured by scintillation counting.

IC50	SMILES
147 nM	COc1cc(-c2cc(C(=O)NCc3ccc(Cl)cc3)c(=O)[nH]n2)ccc1O [Example 41, 6-(4-Hydroxy-3-methoxy-phenyl)-3-oxo-2,3-dihydro-pyridazine-4-carboxylic acid 4-chloro-benzylamide]
577 nM	O=C(NCc1ccc(Cl)cc1)c1cc(-c2ccncc2)n[nH]c1=O [Example 4, N-(4-chlorobenzyl)-3-oxo-6-pyridin-4-yl-2,3-dihydropyridazine-4-carboxamide-6]
30 nM	CNc1nccc(-c2cc(C(=O)NCc3ccc(Cl)cc3)c(=O)[nH]n2)n1 [Example 34, 6-(2-Methylamino-pyrimidin-4-yl)-3-oxo-2,3-dihydro-pyridazine-4-carboxylic acid 4-chloro-benzylamide]
15 nM	CCCCNc1nccc(-c2cc(C(=O)NCc3cccnc3)c(=O)[nH]n2)n1 [Example 219, 6-(2-Butylamino-pyrimidin-4-yl)-3-oxo-2,3-dihydro-pyridazine-4-carboxylic acid (pyridin-3-ylmethyl)-amide]
344 nM	O=C(NCc1ccc(Cl)cc1)c1cc(-c2cn[nH]c2)n[nH]c1=O [Example 39, 3-Oxo-6-(1H-pyrazol-4-yl)-2,3-dihydro-pyridazine-4-carboxylic acid 4-chloro-benzylamide]
173 nM	O=C(NCc1ccc(Cl)cc1)c1cc(-c2ccc(O)c(Cl)c2)n[nH]c1=O [Example 180, 6-(3-Chloro-4-hydroxy-phenyl)-3-oxo-2,3-dihydro-pyridazine-4-carboxylic acid 4-chloro-benzylamide]
18 nM	CCNc1nccc(-c2cc(C(=O)NCc3ccc(Cl)cc3)c(=O)[nH]n2)n1 [Example 190, 6-(2-Ethylamino-pyrimidin-4-yl)-3-oxo-2,3-dihydro-pyridazine-4-carboxylic acid 4-chloro-benzylamide]
133 nM	O=C(NCCCc1cccnc1)c1cc(-c2ccc(O)cc2)n[nH]c1=O [Example 164, 6-(4-Hydroxy-phenyl)-3-oxo-2,3-dihydro-pyridazine-4-carboxylicacid (3-pyridin-3-yl-propyl)-amide]
581 nM	O=C(NCCCCO)c1cc(-c2ccncc2)n[nH]c1=O [Example 31, 3-Oxo-6-pyridin-4-yl-2,3-dihydro-pyridazine-4-carboxylic acid (4-hydroxy-butyl)-amide]
519 nM	O=C(NCc1ccc(F)cc1)c1cc(-c2ccncc2)n[nH]c1=O [Example 125, 3-Oxo-6-pyridin-4-yl-2,3-dihydro-pyridazine-4-carboxylic acid 4-fluoro-benzylamide; compoundwith trifluoro-acetic acid]
119 nM	O=C(NCc1ccc(Cl)cc1)c1cc(-c2ccc(O)cc2)n[nH]c1=O [Example 40, 6-(4-Hydroxy-phenyl)-3-oxo-2,3-dihydro-pyridazine-4-carboxylicacid 4-chloro-benzylamide]
107 nM	CCCCNc1nccc(-c2cc(C(=O)NCCCN3CCN(C)CC3)c(=O)[nH]n2)n1 [Example 218, 6-(2-Butylamino-pyrimidin-4-yl)-3-oxo-2,3-dihydro-pyridazine-4-carboxylic acid [3-(4-methyl-piperazin-1-yl)-propyl]-amide; compoundwith trifluoro-acetic acid]
102 nM	O=C(NCc1ccc(Cl)cc1)c1cc(-c2ccc(O)c(F)c2)n[nH]c1=O [Example 183, 6-(3-Fluoro-4-hydroxy-phenyl)-3-oxo-2,3-dihydro-pyridazine-4-carboxylic acid 4-chloro-benzylamide]
353 nM	Cc1ccc(CNC(=O)c2cc(-c3ccncc3)n[nH]c2=O)s1 [Example 139, 3-Oxo-6-pyridin-4-yl-2,3-dihydro-pyridazine-4-carboxylic acid (5-methyl-thiophen-2-ylmethyl)-amide; compound withtrifluoro-acetic acid]
149 nM	COc1cc(-c2cc(C(=O)NCc3ccc(C(=O)O)cc3)c(=O)[nH]n2)ccc1O [Example 225, 4-({[6-(4-Hydroxy-3-methoxy-phenyl)-3-oxo-2,3-dihydro-pyridazine-4-carbonyl]-amino}-methyl)-benzoic acid]
